Data on twelve molecules can be found in ChEMBL document CHEMBL3991601, “The target landscape of clinical kinase drugs” (Science, 2017).

Calls of active or inactive are those of the source. Where only a bound is given, the exact number is not on record here.

Experiment [1] deals with T1, Mitogen-activated protein kinase kinase kinase kinase 3 (Homo sapiens, UniProt Q8IVH8).
T1 sequence (Q8IVH8 whole entry): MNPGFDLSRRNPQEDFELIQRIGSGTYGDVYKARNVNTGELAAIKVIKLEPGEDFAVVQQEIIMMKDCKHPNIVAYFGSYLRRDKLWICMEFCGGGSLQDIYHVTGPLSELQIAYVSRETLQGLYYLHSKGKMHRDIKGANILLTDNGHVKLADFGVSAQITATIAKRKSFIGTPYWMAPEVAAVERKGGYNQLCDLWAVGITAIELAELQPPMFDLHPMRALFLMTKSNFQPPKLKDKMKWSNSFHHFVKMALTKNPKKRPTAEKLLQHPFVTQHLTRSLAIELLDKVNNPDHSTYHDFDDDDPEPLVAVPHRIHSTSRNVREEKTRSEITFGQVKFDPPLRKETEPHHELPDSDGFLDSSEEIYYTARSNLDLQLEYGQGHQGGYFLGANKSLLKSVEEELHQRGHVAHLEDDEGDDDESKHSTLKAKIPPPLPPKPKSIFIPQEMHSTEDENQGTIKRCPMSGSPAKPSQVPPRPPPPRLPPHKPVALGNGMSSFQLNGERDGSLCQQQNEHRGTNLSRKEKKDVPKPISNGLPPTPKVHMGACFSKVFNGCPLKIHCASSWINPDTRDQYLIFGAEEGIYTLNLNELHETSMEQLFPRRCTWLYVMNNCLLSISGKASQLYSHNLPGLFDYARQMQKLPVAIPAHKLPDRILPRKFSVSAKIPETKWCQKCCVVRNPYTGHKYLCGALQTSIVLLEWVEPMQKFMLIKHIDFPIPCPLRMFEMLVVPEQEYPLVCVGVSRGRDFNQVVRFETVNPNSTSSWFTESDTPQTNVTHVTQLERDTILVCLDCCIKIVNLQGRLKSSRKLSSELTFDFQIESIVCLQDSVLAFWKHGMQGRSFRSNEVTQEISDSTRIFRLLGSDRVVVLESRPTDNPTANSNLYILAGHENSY

Experiment [2] concerns the target T2, Interleukin-1 receptor-associated kinase 3 (Homo sapiens, UniProt Q9Y616).
T2 sequence (Q9Y616 whole entry): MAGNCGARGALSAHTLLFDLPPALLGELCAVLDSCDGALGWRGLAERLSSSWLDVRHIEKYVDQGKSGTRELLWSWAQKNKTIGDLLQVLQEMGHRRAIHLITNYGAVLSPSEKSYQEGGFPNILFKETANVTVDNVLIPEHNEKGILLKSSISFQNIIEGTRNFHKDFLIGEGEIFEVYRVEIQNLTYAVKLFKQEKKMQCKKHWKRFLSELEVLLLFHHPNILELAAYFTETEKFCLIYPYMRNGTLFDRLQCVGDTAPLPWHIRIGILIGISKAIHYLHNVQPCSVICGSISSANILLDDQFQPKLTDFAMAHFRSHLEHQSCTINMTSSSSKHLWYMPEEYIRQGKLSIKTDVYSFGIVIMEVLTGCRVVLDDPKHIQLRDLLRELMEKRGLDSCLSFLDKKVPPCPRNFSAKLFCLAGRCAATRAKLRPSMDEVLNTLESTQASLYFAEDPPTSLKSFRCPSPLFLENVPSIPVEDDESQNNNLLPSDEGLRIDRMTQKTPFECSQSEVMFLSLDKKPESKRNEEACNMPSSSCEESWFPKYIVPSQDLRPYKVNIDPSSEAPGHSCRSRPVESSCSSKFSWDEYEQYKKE

The target of experiment [3] is T3, Ras-related protein Rab-10 (Homo sapiens, UniProt P61026).
T3 sequence (P61026 whole entry): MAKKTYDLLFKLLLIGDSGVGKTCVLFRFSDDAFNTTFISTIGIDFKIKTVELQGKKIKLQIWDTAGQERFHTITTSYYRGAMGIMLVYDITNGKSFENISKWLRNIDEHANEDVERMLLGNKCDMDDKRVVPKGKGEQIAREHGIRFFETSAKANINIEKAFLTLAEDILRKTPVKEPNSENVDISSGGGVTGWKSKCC

The target of experiment [4] is T4, Serine/threonine-protein kinase Nek1 (Homo sapiens, UniProt Q96PY6).
T4 sequence (Q96PY6 whole entry): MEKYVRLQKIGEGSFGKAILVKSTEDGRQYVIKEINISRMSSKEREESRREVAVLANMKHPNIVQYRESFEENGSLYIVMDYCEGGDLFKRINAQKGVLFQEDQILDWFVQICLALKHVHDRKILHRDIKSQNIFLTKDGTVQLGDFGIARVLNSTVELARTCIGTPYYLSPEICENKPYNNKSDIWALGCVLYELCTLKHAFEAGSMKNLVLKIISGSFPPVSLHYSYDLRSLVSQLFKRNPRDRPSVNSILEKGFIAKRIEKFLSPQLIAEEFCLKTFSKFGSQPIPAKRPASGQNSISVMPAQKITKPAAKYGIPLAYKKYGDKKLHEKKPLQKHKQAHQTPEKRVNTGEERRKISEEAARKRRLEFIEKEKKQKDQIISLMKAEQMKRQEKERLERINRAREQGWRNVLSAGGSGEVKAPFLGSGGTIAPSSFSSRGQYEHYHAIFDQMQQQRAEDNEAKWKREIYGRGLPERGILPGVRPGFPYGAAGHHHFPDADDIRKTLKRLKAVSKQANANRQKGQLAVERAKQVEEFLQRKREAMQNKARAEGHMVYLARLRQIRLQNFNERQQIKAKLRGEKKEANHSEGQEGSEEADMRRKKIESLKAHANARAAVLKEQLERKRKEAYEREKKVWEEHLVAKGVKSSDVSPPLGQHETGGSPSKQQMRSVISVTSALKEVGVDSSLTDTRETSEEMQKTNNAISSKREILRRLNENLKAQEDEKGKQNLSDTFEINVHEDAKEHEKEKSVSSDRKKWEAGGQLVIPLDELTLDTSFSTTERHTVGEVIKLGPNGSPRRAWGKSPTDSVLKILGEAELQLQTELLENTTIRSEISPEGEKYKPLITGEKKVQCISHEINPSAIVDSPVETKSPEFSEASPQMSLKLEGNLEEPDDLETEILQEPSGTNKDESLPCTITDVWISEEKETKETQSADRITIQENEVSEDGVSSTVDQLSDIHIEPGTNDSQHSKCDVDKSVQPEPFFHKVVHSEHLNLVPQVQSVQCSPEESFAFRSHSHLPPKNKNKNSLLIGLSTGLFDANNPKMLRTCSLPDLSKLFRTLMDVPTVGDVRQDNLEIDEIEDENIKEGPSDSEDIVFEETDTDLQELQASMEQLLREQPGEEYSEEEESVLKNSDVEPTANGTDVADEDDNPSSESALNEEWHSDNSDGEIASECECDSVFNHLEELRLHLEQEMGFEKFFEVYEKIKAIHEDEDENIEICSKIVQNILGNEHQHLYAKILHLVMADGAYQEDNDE
Further: in the data inactive means no Kd found up to 30 µM.

Broadly, the Kd is the concentration at which binding is half-saturated. As to `CO[C@H]1C[C@@H]2CC[C@@H](C)[C@@](O)(O2)C(=O)C(=O)N2CCCC[C@H]2C(=O)O[C@H]([C@H](C)C[C@@H]2CC[C@@H](O)[C@H](OC)C2)CC(=O)[C@H](C)/C=C(\C)[C@@H](O)[C@@H](OC)C(=O)[C@H](C)C[C@H](C)/C=C/C=C/C=C/1C` [SIROLIMUS], the Kd in experiment [1], in experiment [2], in experiment [3] and in experiment [4] was > 30 µM (inactive) throughout.
For `CCS(=O)(=O)c1cccc(-c2cc(C(=O)NC3CCN(C)CC3)c(C)c3[nH]c4ncc(C)cc4c23)c1` [TAK-901], the dissociation constant Kd in experiment [1] is 9.28 µM; in experiment [2] it was 0.027 µM (active); in experiment [3], > 30 µM (inactive); in experiment [4], > 30 µM (inactive).
For `CO[C@H]1C[C@@H]2CC[C@@H](C)[C@@](O)(O2)C(=O)C(=O)N2CCCC[C@H]2C(=O)O[C@H]([C@H](C)C[C@@H]2CC[C@@H](OC(=O)C(C)(CO)CO)[C@H](OC)C2)CC(=O)[C@H](C)/C=C(\C)[C@@H](O)[C@@H](OC)C(=O)[C@H](C)C[C@H](C)/C=C/C=C/C=C/1C` [TEMSIROLIMUS], the Kd in experiment [1], in experiment [2], in experiment [3] and in experiment [4] was > 30 µM (inactive) in each case.
Consider `COc1cc2c(Nc3ccc(Cl)c(Cl)c3F)ncnc2cc1OC[C@@H]1C[C@@H]2CN(C)C[C@@H]2C1` [TESEVATINIB], for which the Kd was 1.82 µM (active) in experiment [1], > 30 µM (inactive) in experiment [2], > 30 µM (inactive) in experiment [3] and > 30 µM (inactive) in experiment [4].
Take `O=C(Cc1ccc(-c2ccc(OCCN3CCOCC3)cc2)cn1)NCc1ccccc1` [TIRBANIBULIN]: the Kd in experiment [1], in experiment [2], in experiment [3] and in experiment [4] was > 30 µM (inactive) in each case.
As for `O=C1NC(=O)[C@@H](c2cn3c4c(cccc24)CCC3)[C@@H]1c1c[nH]c2ccccc12` [TIVANTINIB], the Kd in experiment [1], in experiment [2], in experiment [3] and in experiment [4] was > 30 µM (inactive) throughout.
`C[C@@H](NC(=O)c1ncnc(N)c1Cl)c1ncc(C(=O)Nc2cc(C(F)(F)F)c(Cl)cn2)s1` [TOVORAFENIB]: the Kd in experiment [1], in experiment [2], in experiment [3] and in experiment [4] was > 30 µM (inactive) in each case.
With `Cc1cc(Nc2ncnc3ccc(NC4=NC(C)(C)CO4)cc23)ccc1Oc1ccn2ncnc2c1` [TUCATINIB], the Kd in experiment [1], in experiment [2], in experiment [3] and in experiment [4] was > 30 µM (inactive) each time.
For `Cn1ncc(Cl)c1-c1cc(C(=O)N[C@H](CN)Cc2ccc(F)c(F)c2)oc1Cl` [UPROSERTIB], the Kd in experiment [1], in experiment [2], in experiment [3] and in experiment [4] was > 30 µM (inactive) in each case.
With `CC(C)c1cc(CNc2nc(Nc3cc(C4CC4)[nH]n3)cc(N3CCN(C)CC3)n2)on1` [XL-228], the Kd was 0.526 µM (active) in experiment [1], 0.08 µM (active) in experiment [2], > 30 µM (inactive) in experiment [3] and > 30 µM (inactive) in experiment [4].
In the case of `C[C@@H](N)c1ccc(C(=O)Nc2ccnc3[nH]ccc23)cc1` [Y-39983], the Kd in experiment [1], in experiment [2], in experiment [3] and in experiment [4] was > 30 µM (inactive) in each case.
For `CN1C/C=C/CCOc2cccc(c2)-c2ccnc(n2)Nc2cccc(c2)C1` [ZOTIRACICLIB], the Kd in experiment [1] was 0.85 µM (active); in experiment [2], 0.286 µM (active); in experiment [3], > 30 µM (inactive); in experiment [4] it was > 30 µM (inactive).
